SMILES strings stand for the structures.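 Tested at 5 concentrations; 48 h exposure; 96-well plates; endpoints linearly interpolated, else capped at highest concentration. Abbreviation: GI50, concentration required for 50% inhibition of growth.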 The source made the active and inactive calls. Cut-off read from the data, not from the text of the source: active = GI50 up to about 1.1 µM and inactive = higher.

Some test systems named below: SF-539; UACC-257; HCC 2998; MDA-MB-435; HOP-18; HL-60; TK-10; KM12; OVCAR-4; DU-145; SF-268; SK-OV-3; SNB-78; OVCAR-5; MDA-N; HCT-15; NCI/ADR-RES; OVCAR-3; NCI-H460; HOP-62.
Test in all cases: NCI tumour cell line growth inhibition, 48 h

As for `COc1ccc(/C=C\c2cc(OC)c(OC)c(OC)c2)cc1OC(=O)CC(N)C(=O)O` (stereo not drawn), the GI50 with SF-539 is 0.00222 µM (active); with UACC-257 it was 0.00171 µM (active); with HCC 2998, 0.106 µM (active); in the experiment with MDA-MB-435, 0.000146 µM (active); in the experiment on HOP-18, 0.703 µM (active); in the experiment on HL-60, 0.000899 µM (active). For the same compound, the GI50 with TK-10 is 0.519 µM (active); in the experiment with KM12 it was 0.00365 µM (active); with OVCAR-4, 0.189 µM (active); in the experiment with DU-145, 0.00293 µM (active); in the experiment on SF-268 it was 0.00305 µM (active); in the experiment with SK-OV-3 it was 0.00423 µM (active). For the same compound, the GI50 with SNB-78 was 0.00208 µM (active); in the experiment with OVCAR-5, 0.327 µM (active); with MDA-N, 0.000166 µM (active); in the experiment on HCT-15, 0.00258 µM; in the experiment on NCI/ADR-RES it was 0.000224 µM (active); in the experiment with OVCAR-3 it was 0.00224 µM (active). In addition, the GI50 with NCI-H460 is 0.00219 µM (active); in the experiment with HOP-62, 0.00382 µM (active).

For the compound `CC(CNCCCNCCNCCCNCO)[N+](=O)[O-]` (stereo not drawn), the GI50 in the experiment on SF-539 was 15.4 µM (inactive); in the experiment with UACC-257, 13.3 µM (inactive); in the experiment on HCC 2998 it was 16.6 µM (inactive); with HOP-18, 14.7 µM (inactive); with HL-60, 3.89 µM (inactive); with TK-10, 2.49 µM (inactive). Moreover, the GI50 in the experiment with KM12 is 16.1 µM (inactive); with OVCAR-4 it was 14.5 µM (inactive); in the experiment with SF-268, 15.7 µM (inactive); in the experiment on SK-OV-3, > 100 µM (inactive); with SNB-78, 20.6 µM (inactive); in the experiment with OVCAR-5, 13.9 µM (inactive). Besides, the GI50 with HCT-15 was 10.8 µM; with OVCAR-3 it was 16.5 µM (inactive); in the experiment with NCI-H460, 17.2 µM (inactive); in the experiment on HOP-62, > 100 µM (inactive).

Take `O=C1CC2C=CC1C2CO` (stereo not drawn): the GI50 in the experiment on SF-539, in the experiment on UACC-257, with HCC 2998, in the experiment with HOP-18, in the experiment on HL-60 and in the experiment with TK-10 was > 100 µM (inactive) in each case. Also, the GI50 in the experiment on KM12, with OVCAR-4, in the experiment on SF-268, in the experiment with SK-OV-3, in the experiment with SNB-78 and in the experiment on OVCAR-5 was > 100 µM (inactive) in each case. For the same compound, the GI50 was greater than 100 µM with HCT-15, > 100 µM (inactive) in the experiment with OVCAR-3, > 100 µM (inactive) in the experiment on NCI-H460 and > 100 µM (inactive) in the experiment with HOP-62.

As for `Cc1cc2c(cc1C)[n+]([O-])c(C(=O)/C=C/c1ccccc1[N+](=O)[O-])c(C)[n+]2[O-]`, the GI50 was 31.2 µM (inactive) in the experiment with SF-539; 75.9 µM (inactive) with UACC-257; 71.6 µM (inactive) in the experiment on HCC 2998; > 100 µM (inactive) with MDA-MB-435; 38.5 µM (inactive) in the experiment on HOP-18; 89.5 µM (inactive) in the experiment with HL-60. In addition, the GI50 is 49.9 µM (inactive) in the experiment with TK-10; > 100 µM (inactive) in the experiment on KM12; > 100 µM (inactive) in the experiment on OVCAR-4; > 100 µM (inactive) in the experiment with DU-145; 34.2 µM (inactive) in the experiment with SF-268; > 46.7 µM (inactive) with SK-OV-3. The GI50 in the experiment on SNB-78 is 27 µM (inactive); with OVCAR-5, > 100 µM (inactive); in the experiment with MDA-N it was > 96.2 µM (inactive); with HCT-15, 73.8 µM; with NCI/ADR-RES, > 100 µM (inactive); in the experiment with OVCAR-3 it was 50.7 µM (inactive). The results for the GI50 with NCI-H460 and in the experiment with HOP-62 were 71.6 µM (inactive) and 34 µM (inactive), respectively.

With `Nc1ncnc2c(C3OC(CO)C(O)C3O)c[nH]c12` (stereo not drawn), the GI50 in the experiment with SF-539 was 0.00813 µM (active); with UACC-257 it was 0.0185 µM (active); in the experiment on HCC 2998, 0.00621 µM (active); in the experiment on MDA-MB-435, 0.0314 µM (active); with HOP-18, 0.00809 µM (active); in the experiment on TK-10, 0.0705 µM (active). The GI50 in the experiment with KM12 was 0.00533 µM (active); in the experiment with OVCAR-4 it was 0.0146 µM (active); with DU-145 it was 0.006 µM (active); in the experiment on SF-268 it was 0.01 µM (active); with SK-OV-3 it was 0.000552 µM (active); with SNB-78 it was 0.01 µM (active). Besides, the GI50 in the experiment with OVCAR-5 was 0.00804 µM (active); in the experiment on MDA-N it was 0.0131 µM (active); with HCT-15 it was 0.00372 µM; in the experiment on NCI-H460, 0.00269 µM (active).

In the case of `COc1ccc(NC(=O)CSc2nnc(-c3ccc(NC(C)=O)cc3)o2)cc1`, the GI50 in the experiment on SF-539 was > 10 µM (inactive); with UACC-257, 21.5 µM (inactive); in the experiment on HCC 2998, 19.7 µM (inactive); with HOP-18 it was 19.9 µM (inactive); in the experiment on HL-60, 21.9 µM (inactive); with TK-10, 21.7 µM (inactive). In addition, the GI50 was 15.1 µM (inactive) in the experiment with KM12; 15.7 µM (inactive) in the experiment with OVCAR-4; 15.8 µM (inactive) in the experiment with SF-268; 44.1 µM (inactive) with SK-OV-3; 13.8 µM (inactive) in the experiment on SNB-78; 14.4 µM (inactive) with OVCAR-5. The GI50 in the experiment on HCT-15 is 11.2 µM; in the experiment on OVCAR-3 it was 17.8 µM (inactive); with NCI-H460, 15.5 µM (inactive); in the experiment with HOP-62, 34.1 µM (inactive).

As for `COc1cc(-c2cc(CCC(=O)Nc3ccccc3[N+](=O)[O-])n(-c3ccc([N+](=O)[O-])cc3[N+](=O)[O-])n2)ccc1O`, the GI50 in the experiment on SF-539, in the experiment with UACC-257, in the experiment with HCC 2998, with HOP-18, in the experiment with HL-60 and with TK-10 was > 10 µM (inactive) in each case. In addition, the GI50 with KM12, in the experiment on OVCAR-4, in the experiment on SF-268, in the experiment on SK-OV-3, in the experiment on SNB-78 and in the experiment with OVCAR-5 was > 10 µM (inactive) in each case. Also, the GI50 is 40.7 µM in the experiment on HCT-15, > 10 µM (inactive) in the experiment with OVCAR-3, > 10 µM (inactive) in the experiment with NCI-H460 and > 10 µM (inactive) in the experiment on HOP-62.

As for `O=C(CNC(=O)OCc1ccccc1)Oc1ccccc1`, the GI50 with SF-539, in the experiment with UACC-257, in the experiment with HCC 2998, with HOP-18, with HL-60 and in the experiment with TK-10 was > 100 µM (inactive) throughout. For the same compound, the GI50 in the experiment on KM12, with OVCAR-4, in the experiment with SF-268, with SK-OV-3, in the experiment on SNB-78 and in the experiment with OVCAR-5 was > 100 µM (inactive) each time. Moreover, the GI50 with HCT-15 was greater than 100 µM; in the experiment with OVCAR-3 it was > 100 µM (inactive); in the experiment on NCI-H460 it was > 100 µM (inactive); in the experiment with HOP-62, > 100 µM (inactive).

On to `COCCOCOc1ccc(OCOCCOC)c2c1C(=O)c1ccccc1C2=O`, for which the GI50 in the experiment with SF-539 was 36.3 µM (inactive); in the experiment on UACC-257 it was 42.8 µM (inactive); in the experiment on HCC 2998 it was 61.7 µM (inactive); with HOP-18 it was 77.1 µM (inactive); in the experiment on HL-60 it was 18.4 µM (inactive); in the experiment on TK-10 it was > 73.6 µM (inactive). For the same compound, the GI50 in the experiment on KM12 is > 75.9 µM (inactive); in the experiment on OVCAR-4, 59.4 µM (inactive); with SF-268, 31.3 µM (inactive); in the experiment on SK-OV-3 it was > 100 µM (inactive); with SNB-78, > 63.1 µM (inactive); in the experiment with OVCAR-5 it was > 100 µM (inactive). In addition, the GI50 in the experiment on HCT-15 is 30.3 µM; in the experiment with OVCAR-3, 36.9 µM (inactive); with NCI-H460, 24.3 µM (inactive); in the experiment with HOP-62 it was > 100 µM (inactive).

In the case of `COc1cc2c(cc1O)[C@H](C)C(c1ccc(OC)c(OC)c1)O2` (stereo partly drawn), the GI50 in the experiment on SF-539 was 4.85 µM (inactive); with UACC-257, 10.9 µM (inactive); in the experiment on HCC 2998 it was 7.6 µM (inactive); in the experiment with HOP-18 it was 4.36 µM (inactive); in the experiment with HL-60 it was 3.41 µM (inactive); in the experiment on TK-10 it was 15.7 µM (inactive). Besides, the GI50 with KM12 is 16.7 µM (inactive); in the experiment on OVCAR-4, 13 µM (inactive); in the experiment with SF-268, 44.4 µM (inactive); with SK-OV-3, 9.48 µM (inactive); in the experiment with SNB-78 it was 17.3 µM (inactive); with OVCAR-5, 45.6 µM (inactive). Moreover, the GI50 was 3.08 µM in the experiment on HCT-15, 5.66 µM (inactive) with OVCAR-3, 2.13 µM (inactive) in the experiment on NCI-H460 and 9.46 µM (inactive) in the experiment with HOP-62.

Turning to `COc1ccc(Cl)cc1NC(=O)c1cccc([N+](=O)[O-])c1O`, the GI50 was 16.1 µM (inactive) with SF-539; 15.2 µM (inactive) with UACC-257; 14 µM (inactive) in the experiment on HCC 2998; 14.4 µM (inactive) in the experiment on MDA-MB-435; 2.51 µM (inactive) in the experiment on HOP-18; 19.1 µM (inactive) with HL-60. Besides, the GI50 in the experiment with TK-10 is 32.9 µM (inactive); with KM12, 19.5 µM (inactive); with OVCAR-4 it was 10.2 µM (inactive); in the experiment on DU-145, 23.7 µM (inactive); in the experiment with SF-268 it was 17.9 µM (inactive); in the experiment on SK-OV-3, 24.7 µM (inactive). The GI50 in the experiment with SNB-78 was 19.4 µM (inactive); in the experiment with OVCAR-5, 27.8 µM (inactive); with MDA-N, 19.8 µM (inactive); in the experiment on HCT-15, 21.8 µM; with NCI/ADR-RES, 10 µM (inactive); in the experiment with OVCAR-3, 5.19 µM (inactive). Besides, the results for the GI50 with NCI-H460 and with HOP-62 were 15.7 µM (inactive) and 13.4 µM (inactive), respectively.

These data come from ChEMBL document CHEMBL1201862, “PubChem BioAssay data set” (2004).
